This note sets out measurements from paper PMC7749613 (Journal of Cachexia, Sarcopenia and Muscle, 2020).

Common to all, as to assay type: in vitro ADME
In one data set the target is T1, BCRP (ABCG2) (Homo sapiens, UniProt Q9UNQ0).
T1 construct: host or cells: MDCKII
T1 sequence (Q9UNQ0 1-655): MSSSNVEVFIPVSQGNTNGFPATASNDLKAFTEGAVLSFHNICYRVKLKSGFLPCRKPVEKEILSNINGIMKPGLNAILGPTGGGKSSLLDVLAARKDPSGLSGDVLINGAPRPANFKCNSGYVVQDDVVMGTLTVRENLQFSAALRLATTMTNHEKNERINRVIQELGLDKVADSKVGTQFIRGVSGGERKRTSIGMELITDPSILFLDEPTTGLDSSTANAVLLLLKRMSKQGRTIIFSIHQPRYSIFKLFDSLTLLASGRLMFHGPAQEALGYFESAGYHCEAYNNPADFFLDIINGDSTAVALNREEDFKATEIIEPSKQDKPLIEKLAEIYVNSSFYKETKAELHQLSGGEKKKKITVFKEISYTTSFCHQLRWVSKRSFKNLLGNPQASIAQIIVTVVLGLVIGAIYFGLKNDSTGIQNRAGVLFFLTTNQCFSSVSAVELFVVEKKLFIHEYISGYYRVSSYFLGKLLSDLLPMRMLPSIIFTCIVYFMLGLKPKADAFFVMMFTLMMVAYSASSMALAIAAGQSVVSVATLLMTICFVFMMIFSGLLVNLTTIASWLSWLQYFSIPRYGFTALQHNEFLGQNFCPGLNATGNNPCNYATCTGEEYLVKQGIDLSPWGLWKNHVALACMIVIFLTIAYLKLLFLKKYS
Briefly: Transepithelial transport of rosuvastatin (±TCMCB07) in MDCKII/BCRP cells. On the procedure:
Cells were then washed three times, each with 0.5 mL pre‐warmed HBSS buffer. […] The cells were then incubated for various times up to 60 min. […] At the designated times, 15 μL of apical buffer and 50 μL of basolateral buffer were sampled. Once all the samples were collected, 0.5 mL of ice‐cold HBSS buffer was added to the well to stop transport after which the cells were rinsed three times with 0.5 mL of ice‐cold HBSS. The filters with monolayers were then detached from the chamber and placed in a scintillation vial, and the cells were lysed with 0.33 mL hyamine hydroxide.
The permeability of digoxin and rosuvastatin (prototypical substrates for MDR1 and BCRP, respectively) was determined by the following ^18 : (4) Papp=CR·VR/CD^o·A·∆Δt, where Papp is the apparent permeability, CR is the concentration of substrate in the receiver chamber, CD^o is the concentration of substrate in the donor chamber at time zero, VR is the volume of buffer in the receiver chamber, A is the surface area of the insert filter membrane, and ∆t is the time over which permeability is measured.
A similar analysis can be performed for rosuvastatin by substituting ERRos for ERDig and ERRos+T for ERDig+T in Eqn 6.

The target in a further data set is T2, OCT2 (Homo sapiens, UniProt O15244).
T2 construct: host or cells: HEK293
T2 sequence (O15244 1-555): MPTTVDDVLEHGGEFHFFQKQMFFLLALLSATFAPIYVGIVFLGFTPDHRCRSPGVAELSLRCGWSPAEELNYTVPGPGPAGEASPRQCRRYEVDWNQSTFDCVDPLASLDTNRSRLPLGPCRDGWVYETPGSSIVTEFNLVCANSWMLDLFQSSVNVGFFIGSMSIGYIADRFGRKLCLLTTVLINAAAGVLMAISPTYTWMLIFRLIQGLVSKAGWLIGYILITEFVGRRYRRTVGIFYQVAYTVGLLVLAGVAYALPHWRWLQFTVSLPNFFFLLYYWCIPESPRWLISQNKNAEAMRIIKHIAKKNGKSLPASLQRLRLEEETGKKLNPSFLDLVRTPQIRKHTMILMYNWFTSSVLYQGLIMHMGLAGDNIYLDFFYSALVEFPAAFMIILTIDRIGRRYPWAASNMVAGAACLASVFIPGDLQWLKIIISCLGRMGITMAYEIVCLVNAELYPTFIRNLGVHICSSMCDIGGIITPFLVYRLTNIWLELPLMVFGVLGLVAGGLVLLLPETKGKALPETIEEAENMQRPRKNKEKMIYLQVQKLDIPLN
Briefly: Inhibition of prototypical substrate (MPP+) uptake by TCMCB07 in HEK293/OCT2 cells.

The next data set has as its target T3, OATP1B1 (Homo sapiens, UniProt Q9Y6L6).
T3 construct: host or cells: HEK293
T3 sequence (Q9Y6L6 1-691): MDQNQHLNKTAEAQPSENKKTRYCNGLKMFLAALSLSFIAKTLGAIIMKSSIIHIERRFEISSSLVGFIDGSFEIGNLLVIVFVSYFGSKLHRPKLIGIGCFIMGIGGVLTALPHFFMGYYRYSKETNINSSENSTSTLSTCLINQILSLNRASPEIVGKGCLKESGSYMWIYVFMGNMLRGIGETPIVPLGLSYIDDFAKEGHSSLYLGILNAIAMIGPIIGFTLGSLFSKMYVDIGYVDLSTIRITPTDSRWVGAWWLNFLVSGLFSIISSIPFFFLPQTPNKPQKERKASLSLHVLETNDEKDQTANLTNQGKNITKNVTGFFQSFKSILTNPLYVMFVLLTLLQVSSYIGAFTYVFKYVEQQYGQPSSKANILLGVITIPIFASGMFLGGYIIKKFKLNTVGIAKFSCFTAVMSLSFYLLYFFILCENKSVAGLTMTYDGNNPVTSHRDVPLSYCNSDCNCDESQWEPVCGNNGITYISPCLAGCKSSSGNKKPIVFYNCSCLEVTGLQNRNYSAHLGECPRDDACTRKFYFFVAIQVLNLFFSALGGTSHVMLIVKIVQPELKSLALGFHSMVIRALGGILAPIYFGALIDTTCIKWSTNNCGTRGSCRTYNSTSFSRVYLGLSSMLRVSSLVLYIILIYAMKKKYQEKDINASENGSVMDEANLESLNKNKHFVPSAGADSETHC
The data set can be described thus: Inhibition of prototypical substrate (E17βG) uptake by TCMCB07 in HEK293/OATP1B1 cells.

Where [1] appears, read: in the presence of 500 μM TCMCB07, increased by.

Bridge positions count the residues as written; N and C are the ends. Square brackets hold non-standard residues; d marks the D form. Peptide text beside a SMILES is read from it. d2Nal = N[C@H](Cc1ccc2ccccc2c1)C(=O)O; Nle = CCCC[C@H](N)C(=O)O

Method for OATP1B1: (§1) Cells were then washed three times × 1.0 mL each with pre‐warmed Hank's Balanced Salt Solution (HBSS) buffer. A 0.5 mL aliquot of uptake buffer [HBSS plus 10 mM 4‐(2‐hydroxyethyl)‐1‐piperazineethanesulfonic acid (HEPES), pH 7.4], containing the radiolabelled prototypical substrate and mannitol, was then incubated for various times up to 60 min to determine the optimal incubation time for subsequent experiments (i.e. time of sampling during linear uptake conditions). At the designated times, 1.0 mL of ice‐cold HBSS buffer was added to stop uptake after which the cells were rinsed three times with 1.0 mL with ice‐cold HBSS. Hyamine hydroxide (0.33 mL) was then added to each well to lyse the cells. The cells were transferred into a scintillation vial and mixed with 6.0 mL of cytosine scintillation cocktail. Radioactivity of the solubilized cells was determined with a dual‐channel liquid scintillation counter (Beckman LS 6000; Beckman Coulter Inc., Fullerton, CA) and the protein quantified by a bicinchoninic acid protein assay kit (Pierce Biotechnology; Rockford, IL).
Method for OCT2: as §1

As a reminder, the IC50 is the concentration that inhibits the measured activity by half. High values mean weaker potency, low ones greater potency. Regarding `CCCC[C@H](NC(C)=O)C(=O)N[C@H]1CC(=O)NCCCC[C@@H](C(=O)N[C@@H](C(=O)N2CCC[C@@H]2C(N)=O)C(C)C)NC(=O)[C@H](Cc2c[nH]c3ccccc23)NC(=O)[C@H](CCCN=C(N)N)NC(=O)[C@@H](Cc2ccc3ccccc3c2)NC(=O)[C@@H]2CCCN2C1=O` [TCMCB07, Ac‐Nle‐c[Asp‐Pro‐dNal2′‐Arg‐Trp‐Lys]‐dVal‐dPro‐NH2] (Ac-[Nle]DP[d2Nal]RWK[dV][dP]-NH2; lactam 2-7), on BCRP (ABCG2) (MDCKII/BCRP, 500 μM TCMCB07, negative = efflux ratio increased), the “% Change ER of rosuvastatin, 100·(1−ERRos+T/ERRos)” value is −32%. Moreover, at BCRP (ABCG2) (setting [1]), the “increase of BCRP‐mediated permeability of rosuvastatin, A to B direction” value is given as 5% and the “increase of BCRP‐mediated permeability of rosuvastatin, B to A direction” value is listed as 37%. For the same compound, the “effect on BCRP‐mediated permeability of prototypical substrate” value on BCRP (ABCG2) (transfected cells, 500 μM TCMCB07) is on record as “did not affect”. At OCT2, this compound gave an IC50 of 1170 µM. The compound also returned an IC50 against OATP1B1 of 6.8 ± 1 µM. In addition, the Slope factor at OATP1B1 (slope factor n of Eqn 1, OATP1B1, substrate E17βG) was 1.0 ± 0.1.
